Columns and labels:
[1] = biological target: Rho-associated protein kinase 2 (Homo sapiens, UniProt O75116); test: Inhibition of His-tagged human ROCK2 expressed in Sf9 cells pre-incubated for 10 mins before S6 peptide substrate addition in presence of [33P]ATP and measured after 20 mins by scintillation counting
Saphenous artery = test: Vasorelaxant activity in isolated Chinchilla rabbit saphenous artery vessels assessed as inhibition of phenylephrine-mediated contraction; assay type: functional, tissue-based; settings: Oryctolagus cuniculus
Rattus norvegicus [2] = test: Anti-hypertensive effect in anaesthetized Wistar rat assessed as blood-pressure-lowering effect at 3 mg/kg, iv relative to control; assay type: functional
in vivo [3] = settings: Wistar, rat, iv, 0.5 mg/kg
in vivo [4] = settings: Wistar, rat, iv, 0.5 mg/kg; remark: listed apart in the source
in vivo [5] = settings: Wistar, rat, po, 1 mg/kg
Rattus norvegicus [6] = test: Anti-hypertensive effect in anaesthetized Wistar rat assessed as blood-pressure-lowering effect at 0.3 mg/kg, iv relative to control; assay type: functional
[7] = biological target: Myosin light chain kinase, smooth muscle (Homo sapiens, UniProt Q15746); test: Inhibition of MYLK (unknown origin)
[8] = biological target: T1, Tyrosine-protein kinase receptor UFO (Homo sapiens, UniProt P30530); test: Inhibition of human AXL
T1 sequence (P30530 whole entry): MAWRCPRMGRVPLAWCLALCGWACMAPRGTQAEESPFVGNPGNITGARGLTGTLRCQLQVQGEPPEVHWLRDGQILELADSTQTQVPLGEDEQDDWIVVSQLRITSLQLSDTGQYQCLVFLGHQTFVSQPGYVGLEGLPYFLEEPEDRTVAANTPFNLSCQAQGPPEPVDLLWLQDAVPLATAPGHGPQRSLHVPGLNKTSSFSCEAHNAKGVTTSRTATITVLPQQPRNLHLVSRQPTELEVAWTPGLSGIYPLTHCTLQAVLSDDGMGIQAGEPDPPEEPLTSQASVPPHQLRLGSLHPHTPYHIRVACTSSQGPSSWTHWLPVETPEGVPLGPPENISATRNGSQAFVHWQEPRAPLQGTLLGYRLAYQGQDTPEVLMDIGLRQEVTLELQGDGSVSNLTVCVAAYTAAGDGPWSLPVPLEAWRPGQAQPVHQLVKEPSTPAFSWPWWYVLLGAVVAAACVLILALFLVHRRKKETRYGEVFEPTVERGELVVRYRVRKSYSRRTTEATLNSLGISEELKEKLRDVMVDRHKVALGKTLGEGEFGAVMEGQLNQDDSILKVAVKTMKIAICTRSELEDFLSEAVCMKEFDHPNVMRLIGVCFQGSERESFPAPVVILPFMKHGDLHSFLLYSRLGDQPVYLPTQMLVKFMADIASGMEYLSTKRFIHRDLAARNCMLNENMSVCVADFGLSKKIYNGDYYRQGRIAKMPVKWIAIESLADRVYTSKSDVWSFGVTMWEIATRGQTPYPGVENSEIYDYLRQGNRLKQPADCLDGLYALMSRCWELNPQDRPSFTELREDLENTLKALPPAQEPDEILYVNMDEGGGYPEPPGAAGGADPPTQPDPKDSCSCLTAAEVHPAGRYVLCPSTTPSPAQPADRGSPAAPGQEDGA

[9] = biological target: RAF proto-oncogene serine/threonine-protein kinase (Homo sapiens, UniProt P04049); test: Inhibition of human c-RAF
[10] = biological target: Voltage-gated L-type calcium channel (Homo sapiens, UniProt Q13936+Q13698+Q01668+O60840); test: Inhibition of L-type calcium channel (unknown origin); assay type: protein assay
[11] = Inhibition of sodium channel (unknown origin); set-up: species or system Homo sapiens
[12] = biological target: Voltage-gated inwardly rectifying potassium channel KCNH2 (Homo sapiens, UniProt Q12809); test: Inhibition of human ERG channel assessed as reduction in K+ current by whole-cell voltage-clamp assay; assay type: toxicity
[13] = buffer

Rho-associated protein kinase 2, sequence (O75116 whole entry): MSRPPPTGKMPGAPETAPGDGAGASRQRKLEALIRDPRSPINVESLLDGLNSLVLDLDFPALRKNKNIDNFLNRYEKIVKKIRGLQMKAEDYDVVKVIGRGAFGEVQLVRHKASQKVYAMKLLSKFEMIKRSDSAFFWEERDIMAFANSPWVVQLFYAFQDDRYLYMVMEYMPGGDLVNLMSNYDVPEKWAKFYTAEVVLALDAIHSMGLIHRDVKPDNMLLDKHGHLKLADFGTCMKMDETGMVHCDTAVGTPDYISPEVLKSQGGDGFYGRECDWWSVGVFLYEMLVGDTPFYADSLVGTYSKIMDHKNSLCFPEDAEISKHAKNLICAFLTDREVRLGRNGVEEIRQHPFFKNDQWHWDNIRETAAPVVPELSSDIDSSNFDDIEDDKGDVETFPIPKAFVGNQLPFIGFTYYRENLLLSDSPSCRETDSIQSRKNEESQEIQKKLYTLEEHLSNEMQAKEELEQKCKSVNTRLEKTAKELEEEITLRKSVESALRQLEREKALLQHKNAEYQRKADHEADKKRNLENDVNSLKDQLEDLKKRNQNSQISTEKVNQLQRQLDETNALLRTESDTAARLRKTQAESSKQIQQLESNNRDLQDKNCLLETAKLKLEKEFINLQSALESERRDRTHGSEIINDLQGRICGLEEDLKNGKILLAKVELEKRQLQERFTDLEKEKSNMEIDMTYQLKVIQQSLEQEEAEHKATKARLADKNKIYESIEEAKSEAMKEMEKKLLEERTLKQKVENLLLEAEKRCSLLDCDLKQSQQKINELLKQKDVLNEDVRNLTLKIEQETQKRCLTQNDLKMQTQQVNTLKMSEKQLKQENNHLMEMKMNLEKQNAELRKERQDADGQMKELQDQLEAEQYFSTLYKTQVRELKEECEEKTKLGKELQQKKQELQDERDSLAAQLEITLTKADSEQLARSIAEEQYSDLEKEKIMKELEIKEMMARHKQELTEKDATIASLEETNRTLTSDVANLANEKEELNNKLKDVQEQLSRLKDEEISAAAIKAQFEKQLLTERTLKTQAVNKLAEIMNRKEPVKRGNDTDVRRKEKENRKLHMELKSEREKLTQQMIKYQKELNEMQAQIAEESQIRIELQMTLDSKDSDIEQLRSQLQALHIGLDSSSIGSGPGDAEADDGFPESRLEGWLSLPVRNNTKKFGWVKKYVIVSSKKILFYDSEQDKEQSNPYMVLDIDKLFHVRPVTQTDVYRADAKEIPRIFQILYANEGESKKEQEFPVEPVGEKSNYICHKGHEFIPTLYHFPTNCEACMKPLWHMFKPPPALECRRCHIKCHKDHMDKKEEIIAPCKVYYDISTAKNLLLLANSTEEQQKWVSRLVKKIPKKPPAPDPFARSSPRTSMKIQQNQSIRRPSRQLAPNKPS
Voltage-gated inwardly rectifying potassium channel KCNH2, sequence (Q12809 whole entry): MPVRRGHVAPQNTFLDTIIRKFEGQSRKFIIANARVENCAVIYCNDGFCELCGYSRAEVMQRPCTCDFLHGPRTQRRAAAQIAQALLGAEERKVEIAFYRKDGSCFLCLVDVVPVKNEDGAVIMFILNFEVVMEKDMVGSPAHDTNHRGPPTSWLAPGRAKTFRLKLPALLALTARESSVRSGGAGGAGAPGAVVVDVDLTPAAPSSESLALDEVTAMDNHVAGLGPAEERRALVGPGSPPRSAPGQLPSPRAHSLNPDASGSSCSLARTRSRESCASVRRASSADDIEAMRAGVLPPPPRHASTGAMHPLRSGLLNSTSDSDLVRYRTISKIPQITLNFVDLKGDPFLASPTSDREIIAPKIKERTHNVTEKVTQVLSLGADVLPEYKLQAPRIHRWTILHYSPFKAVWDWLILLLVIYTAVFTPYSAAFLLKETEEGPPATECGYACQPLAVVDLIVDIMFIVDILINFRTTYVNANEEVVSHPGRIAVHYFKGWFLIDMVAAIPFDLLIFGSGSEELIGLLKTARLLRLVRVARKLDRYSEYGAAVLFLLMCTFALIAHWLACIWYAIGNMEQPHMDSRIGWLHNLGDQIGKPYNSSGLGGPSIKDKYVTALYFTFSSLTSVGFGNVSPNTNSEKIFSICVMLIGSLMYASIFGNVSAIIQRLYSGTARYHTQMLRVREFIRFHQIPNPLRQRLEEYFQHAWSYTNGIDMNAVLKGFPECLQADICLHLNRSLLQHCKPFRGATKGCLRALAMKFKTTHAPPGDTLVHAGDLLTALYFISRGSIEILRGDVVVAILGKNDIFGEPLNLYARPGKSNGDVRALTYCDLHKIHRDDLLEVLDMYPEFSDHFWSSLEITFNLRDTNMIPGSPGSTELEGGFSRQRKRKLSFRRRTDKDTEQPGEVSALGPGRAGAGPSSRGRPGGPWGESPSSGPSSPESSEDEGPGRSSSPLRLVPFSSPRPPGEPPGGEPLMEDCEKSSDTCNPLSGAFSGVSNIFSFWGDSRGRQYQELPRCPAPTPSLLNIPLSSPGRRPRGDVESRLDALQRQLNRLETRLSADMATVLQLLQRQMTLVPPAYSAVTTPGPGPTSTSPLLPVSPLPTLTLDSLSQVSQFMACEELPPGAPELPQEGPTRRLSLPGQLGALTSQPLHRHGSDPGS
RAF proto-oncogene serine/threonine-protein kinase, sequence (P04049 whole entry): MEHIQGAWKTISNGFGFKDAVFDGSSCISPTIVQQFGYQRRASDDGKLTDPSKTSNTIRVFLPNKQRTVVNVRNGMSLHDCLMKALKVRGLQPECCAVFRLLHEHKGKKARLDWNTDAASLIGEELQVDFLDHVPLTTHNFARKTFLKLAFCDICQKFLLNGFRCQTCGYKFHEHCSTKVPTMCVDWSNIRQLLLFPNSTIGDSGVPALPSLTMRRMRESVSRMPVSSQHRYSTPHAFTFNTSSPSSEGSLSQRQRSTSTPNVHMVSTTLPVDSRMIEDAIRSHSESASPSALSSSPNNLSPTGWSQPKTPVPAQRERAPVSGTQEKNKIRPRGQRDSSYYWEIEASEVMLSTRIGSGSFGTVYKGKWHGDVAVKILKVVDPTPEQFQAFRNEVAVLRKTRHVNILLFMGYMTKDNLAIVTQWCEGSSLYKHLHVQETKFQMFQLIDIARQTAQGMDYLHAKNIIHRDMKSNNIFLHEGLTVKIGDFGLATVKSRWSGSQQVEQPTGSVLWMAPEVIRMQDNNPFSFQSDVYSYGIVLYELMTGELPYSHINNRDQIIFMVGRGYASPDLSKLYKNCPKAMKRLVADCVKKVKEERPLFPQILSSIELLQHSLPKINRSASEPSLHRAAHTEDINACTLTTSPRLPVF
Myosin light chain kinase, smooth muscle, sequence (Q15746 whole entry): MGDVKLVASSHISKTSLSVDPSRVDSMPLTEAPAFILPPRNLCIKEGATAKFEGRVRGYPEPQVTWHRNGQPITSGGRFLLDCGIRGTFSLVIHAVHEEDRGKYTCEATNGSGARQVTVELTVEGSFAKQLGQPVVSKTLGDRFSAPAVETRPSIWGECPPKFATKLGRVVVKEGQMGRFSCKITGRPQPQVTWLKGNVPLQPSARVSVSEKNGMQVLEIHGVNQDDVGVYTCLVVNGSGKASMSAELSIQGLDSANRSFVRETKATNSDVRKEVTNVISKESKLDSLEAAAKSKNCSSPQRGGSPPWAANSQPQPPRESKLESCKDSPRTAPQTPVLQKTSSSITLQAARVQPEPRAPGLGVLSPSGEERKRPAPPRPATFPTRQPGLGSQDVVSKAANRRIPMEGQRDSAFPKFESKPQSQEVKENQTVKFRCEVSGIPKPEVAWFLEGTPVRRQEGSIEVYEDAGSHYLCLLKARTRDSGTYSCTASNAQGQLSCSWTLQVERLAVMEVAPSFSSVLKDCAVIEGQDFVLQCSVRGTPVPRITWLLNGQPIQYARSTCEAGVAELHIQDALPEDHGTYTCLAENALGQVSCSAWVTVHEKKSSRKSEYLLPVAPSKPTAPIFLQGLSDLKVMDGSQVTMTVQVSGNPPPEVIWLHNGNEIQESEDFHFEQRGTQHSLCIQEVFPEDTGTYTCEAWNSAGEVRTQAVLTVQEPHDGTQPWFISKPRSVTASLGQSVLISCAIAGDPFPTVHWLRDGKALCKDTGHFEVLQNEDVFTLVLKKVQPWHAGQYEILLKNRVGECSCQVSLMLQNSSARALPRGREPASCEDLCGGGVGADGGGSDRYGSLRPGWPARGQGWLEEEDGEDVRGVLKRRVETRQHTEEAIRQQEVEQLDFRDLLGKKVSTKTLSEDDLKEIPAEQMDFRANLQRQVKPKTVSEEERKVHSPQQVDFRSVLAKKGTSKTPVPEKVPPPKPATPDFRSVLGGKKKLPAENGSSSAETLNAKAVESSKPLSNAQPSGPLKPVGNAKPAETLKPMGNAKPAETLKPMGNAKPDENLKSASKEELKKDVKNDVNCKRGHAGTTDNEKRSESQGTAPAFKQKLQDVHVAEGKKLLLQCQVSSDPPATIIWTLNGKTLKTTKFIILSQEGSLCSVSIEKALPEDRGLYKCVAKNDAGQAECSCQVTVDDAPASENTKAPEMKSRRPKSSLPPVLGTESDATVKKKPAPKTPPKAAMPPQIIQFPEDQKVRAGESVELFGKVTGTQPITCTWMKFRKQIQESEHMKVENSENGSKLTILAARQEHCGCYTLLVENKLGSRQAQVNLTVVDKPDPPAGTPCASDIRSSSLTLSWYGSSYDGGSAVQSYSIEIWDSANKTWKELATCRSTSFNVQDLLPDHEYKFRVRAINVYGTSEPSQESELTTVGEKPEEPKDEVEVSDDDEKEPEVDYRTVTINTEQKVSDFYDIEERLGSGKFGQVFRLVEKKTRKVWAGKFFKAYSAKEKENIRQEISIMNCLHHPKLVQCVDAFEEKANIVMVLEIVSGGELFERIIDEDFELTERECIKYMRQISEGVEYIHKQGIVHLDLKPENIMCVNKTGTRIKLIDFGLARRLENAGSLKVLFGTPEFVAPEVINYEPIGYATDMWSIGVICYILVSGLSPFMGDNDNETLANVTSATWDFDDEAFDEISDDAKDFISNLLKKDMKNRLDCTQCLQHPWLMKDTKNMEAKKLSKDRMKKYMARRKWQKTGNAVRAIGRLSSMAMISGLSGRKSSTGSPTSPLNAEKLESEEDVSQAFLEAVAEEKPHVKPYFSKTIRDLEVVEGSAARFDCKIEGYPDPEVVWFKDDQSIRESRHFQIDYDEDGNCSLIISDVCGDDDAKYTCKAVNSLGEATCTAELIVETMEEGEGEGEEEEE

| Structure (SMILES) | IC50 [1] | IC50 (Saphenous artery) | further results |
| --- | --- | --- | --- |
| Cc1c[nH]c2nccc(Oc3ccc(Nc4cc(Cl)nc(N)n4)cc3F)c12 | – | 100 nM | – |
| Nc1nc(Nc2ccc(Oc3ccnc4[nH]ccc34)c(F)c2)cc(N2CCCC2)n1 | 16 nM | 940 nM | – |
| Nc1nc(Nc2ccc(Oc3ccnc4[nH]ccc34)c(F)c2)cc(-c2cccnc2)n1 | 10 nM | 370 nM | – |
| Nc1nc(Nc2ccc(Oc3ccnc4[nH]ccc34)c(F)c2)cc(-c2ccncc2)n1 | – | 270 nM | Activity (Rattus norvegicus [2]): 65 mmHg; clearance (in vivo [3]): 88.3 mL/min/kg; half-life (in vivo [4]): 18 min; bioavailability (in vivo [5]): 18% |
| Cc1cc(Nc2ccc(Oc3ccnc4[nH]ccc34)c(F)c2)nc(N)n1 | 11 nM | 1700 nM | – |
| Cc1c[nH]c2nccc(Oc3ccc(Nc4ccnc(N)n4)cc3F)c12 | 4 nM | 84 nM | clearance (in vivo [3]): 35 mL/min/kg; half-life (in vivo [4]): 30 min |
| Cc1c[nH]c2nccc(Oc3c(F)cc(Nc4ccnc(N)n4)cc3F)c12 | 2 nM | 56 nM | clearance (in vivo [3]): 26.7 mL/min/kg; half-life (in vivo [4]): 54 min |
| Nc1nc(Nc2ccc(Oc3ccnc4[nH]ccc34)c(F)c2)cc(C2CCNCC2)n1 | 2 nM | 570 nM | – |
| Cc1n[nH]c2cccc(Oc3ccc(Nc4cc(-c5ccncc5)nc(N)n4)cc3F)c12 | – | 6800 nM | – |
| Nc1nc(Nc2ccc(Sc3ccncc3)c(F)c2)cc(-c2ccncc2)n1 | 11 nM | 500 nM | – |
| Nc1nc(Nc2ccc(Oc3ccnc4[nH]ccc34)c(F)c2)cc(N2CCNCC2)n1 | 6 nM | 410 nM | – |
| Cc1c[nH]c2nccc(Oc3ccc(Nc4cc(-c5ccncc5)nc(N)n4)cc3F)c12 | 3 nM | 89 nM | Activity (Rattus norvegicus [2]): 70 mmHg |
| Nc1nc(Nc2ccc(Oc3cccc4cnccc34)c(F)c2)cc(-c2ccncc2)n1 | 200 nM | – | – |
| Nc1nc(Nc2cc(F)c(Oc3ccnc4[nH]cc(Cl)c34)c(F)c2)cc(C(F)(F)F)n1 | 2 nM | 82 nM | solubility [13]: Insoluble |

Continued, in another order:

| IC50 [1] | IC50 (Saphenous artery) | Structure (SMILES) | further results |
| --- | --- | --- | --- |
| 7 nM | 460 nM | Nc1nc(Nc2ccc(Oc3ccnc4[nH]ccc34)c(F)c2)cc(-c2ccccn2)n1 | – |
| 17 nM | 1500 nM | Nc1nccc(Nc2ccc(Oc3ccnc4[nH]ccc34)c(F)c2)n1 | – |
| 90 nM | – | Cc1cc(Nc2ccc(Sc3ccncc3)c(F)c2)nc(N)n1 | – |
| – | 65 nM | Cc1c[nH]c2nccc(Oc3c(F)cc(Nc4cc(Cl)nc(N)n4)cc3F)c12 [BAY-549] | Activity (Rattus norvegicus [6]): 35 mmHg; IC50 [7]: 7400 nM; IC50 [8]: 1000 nM; IC50 [9]: 1000 nM; IC50 [10]: 6700 nM; IC50 [11]: 6800 nM; inhibition (INH) [12]: Not Active; clearance (in vivo [3]): 28.3 mL/min/kg; half-life (in vivo [4]): 72 min; bioavailability (in vivo [5]): 48% |
| > 3000 nM | – | Nc1nc(Nc2ccc(Oc3ccnc4[nH]ncc34)c(F)c2)cc(-c2ccncc2)n1 | – |
| > 3000 nM | – | Nc1nc(Nc2ccc(Oc3cccc4[nH]ccc34)c(F)c2)cc(-c2ccncc2)n1 | – |
| – | 230 nM | Nc1nc(Nc2ccc(Oc3ccnc4[nH]ccc34)c(F)c2)cc(C2CCCNC2)n1 (centres undefined) | – |
| 0.9 nM | 20 nM | N#Cc1c[nH]c2nccc(Oc3c(F)cc(Nc4ccnc(N)n4)cc3F)c12 | solubility [13]: Insoluble |
| 7 nM | 710 nM | Nc1nc(Nc2ccc(Oc3ccnc4[nH]ccc34)c(F)c2)cc(C(F)(F)F)n1 | – |
| 380 nM | – | Nc1nc(Nc2ccc(Oc3cccc4[nH]ncc34)c(F)c2)cc(-c2ccncc2)n1 | – |
| 8 nM | 1200 nM | CCc1c[nH]c2nccc(Oc3ccc(Nc4cc(-c5ccncc5)nc(N)n4)cc3F)c12 | – |
| 800 nM | – | Cc1cc(Nc2ccc(Sc3ccncc3)cc2)nc(N)n1 | – |
| 9 nM | 1100 nM | Nc1nc(Cl)cc(Nc2ccc(Oc3ccnc4[nH]ccc34)c(F)c2)n1 | – |

— ChEMBL document CHEMBL5715943, “Design and synthesis of potent and selective azaindole-based Rho kinase (ROCK) inhibitors” (ChemMedChem, 2008)
